Experimental data reported in patent publication US20110021570A1, “PYRIDONE GLUCOKINASE ACTIVATORS” (priority 2009, published 2011).

Molecular target: T1, Recombinant human liver GK1 (GST-GK) (Homo sapiens, UniProt P35557)
T1 construct: made in house; host or cells: E. coli
T1 sequence (P35557 1-466 isoform P35557-2): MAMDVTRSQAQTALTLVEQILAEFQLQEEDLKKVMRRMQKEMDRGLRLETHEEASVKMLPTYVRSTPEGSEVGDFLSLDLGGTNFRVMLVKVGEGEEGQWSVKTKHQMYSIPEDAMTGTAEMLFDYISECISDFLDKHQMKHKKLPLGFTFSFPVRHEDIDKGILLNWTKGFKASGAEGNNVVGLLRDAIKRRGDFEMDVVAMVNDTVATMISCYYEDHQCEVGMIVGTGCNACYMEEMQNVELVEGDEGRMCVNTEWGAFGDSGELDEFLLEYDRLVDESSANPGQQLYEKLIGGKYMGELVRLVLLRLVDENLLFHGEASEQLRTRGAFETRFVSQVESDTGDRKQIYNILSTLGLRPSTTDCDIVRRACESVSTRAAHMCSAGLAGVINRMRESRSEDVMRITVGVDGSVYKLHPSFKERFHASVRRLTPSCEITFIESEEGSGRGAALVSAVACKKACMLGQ
Test: Glucokinase in vitro assay (G6PDH-coupled, NADH generation)
Format: biochemical
Conditions: concentration of activator that produced a 50% increase in the activity of GK; 5 mM D-glucose, 30° C., pH 7.1
Description: Glucokinase In Vitro Assay Protocol: Glucokinase (GK) was assayed by coupling the production of glucose-6-phosphate to the generation of NADH with glucose-6-phosphate dehydrogenase (G6PDH, 0.75-1 kunits/mg; Boehringer Mannheim, Indianapolis, Ind.) from Leuconostoc mesenteroides as the coupling enzyme:
Recombinant human liver GK1 was expressed in E. coli as a glutathione S-transferase fusion protein (GST-GK) [Liang et al, 1995] and was purified by chromatography over a glutathione-Sepharose 4B affinity column using the procedure provided by the manufacturer (Amersham Pharmacia Biotech, Piscataway, N.J.).
The assay was conducted at 30° C. in a flat bottom 96-well tissue culture plate from Costar (Cambridge, Mass.) with a final incubation volume of 120 μL. The incubation reaction contained the following: 25 mM Hepes buffer (pH 7.1), 25 mM KCl, 5 mM D-glucose, 1 mM ATP, 1.8 mM NAD, 2 mM MgCl2, 1 μM sorbitol-6-phosphate, 1 mM dithiothreitol, test drug or 10% DMSO, ˜7 units/ml G6PDH, and GK (see below). All organic reagents were >98% pure and were from Boehringer Mannheim with the exceptions of D-glucose and Hepes which were from Sigma Chemical Co, St Louis, Mo. Test compounds were dissolved in DMSO and were added to the incubation reaction minus GST-GK in a volume of 12 μL to yield a final DMSO concentration of 10%. This mix was pre-incubated in the temperature controlled chamber of a SPECTRAmax 250 microplate spectrophotometer (Molecular Devices Corporation, Sunnyvale, Calif.) for 10 minutes to allow temperature equilibrium and then the reaction was started by the addition of […].
After addition of enzyme, the increase in optical density (OD) at 340 nm was monitored spectrophotometrically to determine the rate of change (OD340 per min). The GK activity (0D340/min) in control wells (10% DMSO minus GK activators) was compared with the activity in wells containing test GK activators, and the concentration of activator that produced a 50% increase in the activity of GK, i.e., the SC1.5, was calculated. The table below provides the in vitro glucokinase activity for the compounds in the Examples: […]

SC1.5 average | Structure (SMILES)
4.5 µM | CC(C)CC(C(=O)Nc1ccn(C)n1)n1ccc(Oc2ccccc2C(C)C)cc1=O (stereo not drawn) [Example 10, 2-[4-(2-Isopropyl-phenoxy)-2-oxo-2H-pyridin-1-yl]-4-methyl-pentanoic acid (1-methyl-1H-pyrazol-3-yl)-amide]
8.4 µM | CC(C)CC(C(=O)Nc1ccn(C)n1)n1ccc(Oc2ccccc2F)cc1=O (stereo not drawn) [Example 17, 2-[4-(2-Fluoro-phenoxy)-2-oxo-2H-pyridin-1-yl]-4-methyl-pentanoic acid (1-methyl-1H-pyrazol-3-yl)-amide]
8.1 µM | COc1ccccc1Oc1ccn(C(CC(C)C)C(=O)Nc2ccn(C)n2)c(=O)c1 (stereo not drawn) [Example 18, 2-[4-(2-Methoxy-phenoxy)-2-oxo-2H-pyridin-1-yl]-4-methyl-pentanoic acid (1-methyl-1H-pyrazol-3-yl)-amide]
6.2 µM | CC(C)CC(C(=O)Nc1ccn(C)n1)n1ccc(Oc2ccccc2Cl)cc1=O (stereo not drawn) [Example 15, 2-[4-(2-Chloro-phenoxy)-2-oxo-2H-pyridin-1-yl]-4-methyl-pentanoic acid (1-methyl-1H-pyrazol-3-yl)-amide]
7.3 µM | Cc1ccccc1Oc1ccn(C(CC(C)C)C(=O)Nc2ccn(C)n2)c(=O)c1 (stereo not drawn) [Example 4, 4-Methyl-2-(2-oxo-4-o-tolyloxy-2H-pyridin-1-yl)-pentanoic acid (1-methyl-1H-pyrazol-3-yl)-amide]
21.7 µM | CC(C)CC(C(=O)Nc1ccn(C)n1)n1ccc(Oc2ccccc2)cc1=O (stereo not drawn) [Example 3, 4-Methyl-2-(2-oxo-4-phenoxy-2H-pyridin-1-yl)-pentanoic acid (1-methyl-1H-pyrazol-3-yl)-amide]
9.0 µM | Cc1c(Cl)cccc1Oc1ccn(C(CC(C)C)C(=O)Nc2ccn(C)n2)c(=O)c1 (stereo not drawn) [Example 12, 2-[4-(3-Chloro-2-methyl-phenoxy)-2-oxo-2H-pyridin-1-yl]-4-methyl-pentanoic acid (1-methyl-1H-pyrazol-3-yl)-amide]
11.4 µM | CC(C)CC(C(=O)Nc1ccn(C)n1)n1ccc(Oc2ccccc2C(F)(F)F)cc1=O (stereo not drawn) [Example 6, 4-Methyl-2-[2-oxo-4-(2-trifluoromethyl-phenoxy)-2H-pyridin-1-yl]-pentanoic acid (1-methyl-1H-pyrazol-3-yl)-amide]

The remaining lines, values behind:

Structure (SMILES) | SC1.5 average
CC(C)CC(C(=O)Nc1ccn(C)n1)n1ccc(Oc2cccc(F)c2F)cc1=O (stereo not drawn) [Example 1, 2-[4-(2,3-Difluoro-phenoxy)-2-oxo-2H-pyridin-1-yl]-4-methyl-pentanoic acid (1-methyl-1H-pyrazol-3-yl)-amide] | 10.4 µM
CC(C)CC(C(=O)Nc1ccn(C)n1)n1ccc(Oc2c(F)cccc2F)cc1=O (stereo not drawn) [Example 5, 2-[4-(2,6-Difluoro-phenoxy)-2-oxo-2H-pyridin-1-yl]-4-methyl-pentanoic acid (1-methyl-1H-pyrazol-3-yl)-amide] | 4.2 µM
CC(C)CC(C(=O)Nc1ccn(C)n1)n1ccc(Oc2ccc(F)cc2)cc1=O (stereo not drawn) [Example 7, 2-[4-(4-Fluoro-phenoxy)-2-oxo-2H-pyridin-1-yl]-4-methyl-pentanoic acid (1-methyl-1H-pyrazol-3-yl)-amide] | >30 µM
CC(C)CC(C(=O)Nc1ccn(C)n1)n1ccc(Oc2ccccc2-c2ccccc2)cc1=O (stereo not drawn) [Example 9, 2-[4-(Biphenyl-2-yloxy)-2-oxo-2H-pyridin-1-yl]-4-methyl-pentanoic acid (1-methyl-1H-pyrazol-3-yl)-amide] | >30 µM
CC(C)CC(C(=O)Nc1ccn(C)n1)n1ccc(Oc2ccc(F)cc2F)cc1=O (stereo not drawn) [Example 11, 2-[4-(2,4-Difluoro-phenoxy)-2-oxo-2H-pyridin-1-yl]-4-methyl-pentanoic acid (1-methyl-1H-pyrazol-3-yl)-amide] | 22.5 µM
CC(C)CC(C(=O)Nc1ccn(C)n1)n1ccc(Oc2cccc(F)c2)cc1=O (stereo not drawn) [Example 2, 2-[4-(3-Fluoro-phenoxy)-2-oxo-2H-pyridin-1-yl]-4-methyl-pentanoic acid (1-methyl-1H-pyrazol-3-yl)-amide] | >30 µM
CC(C)CC(C(=O)Nc1ccn(C)n1)n1ccc(Oc2cc(F)ccc2F)cc1=O (stereo not drawn) [Example 13, 2-[4-(2,5-Difluoro-phenoxy)-2-oxo-2H-pyridin-1-yl]-4-methyl-pentanoic acid (1-methyl-1H-pyrazol-3-yl)-amide] | 16.6 µM
CC(C)CC(C(=O)Nc1ccn(C)n1)n1ccc(Oc2cccnc2)cc1=O (stereo not drawn) [Example 8, 4-Methyl-2-[2-oxo-4-(pyridin-3-yloxy)-2H-pyridin-1-yl]-pentanoic acid (1-methyl-1H-pyrazol-3-yl)-amide] | 26.1 µM
CC(C)CC(C(=O)Nc1ccn(C)n1)n1ccc(Oc2ccccc2OC(F)(F)F)cc1=O (stereo not drawn) [Example 16, 4-Methyl-2-[2-oxo-4-(2-trifluoromethoxy-phenoxy)-2H-pyridin-1-yl]pentanoic acid (1-methyl-1H-pyrazol-3-yl)-amide] | 8.8 µM
CC(C)CC(C(=O)Nc1ccn(C)n1)n1ccc(Oc2cccc3ccccc23)cc1=O (stereo not drawn) [Example 14, 4-Methyl-2-[4-(naphthalen-1-yloxy)-2-oxo-2H-pyridin-1-yl]-pentanoic acid (1-methyl-1H-pyrazol-3-yl)-amide] | 2.6 µM
